Assay results as given in patent US12234233B2, “Crystal form of phosphodiesterase inhibitor, preparation method therefor and use thereof” (TRANSTHERA SCIENCES (NANJING), INC., priority 2019, dated 2025).
Read-outs that look alike come from different tables or passages of the source.

Experiments:
[1] = Pharmacokinetic evaluation in rats; assay type: in vivo, male SD rats
Method: Test substances: the compound of formula (I) was prepared by example 1 of the present invention, and the crystal form I was prepared by example 2 of the present invention.
Administration to Animals and Sample Collection:
(§1) the compound of formula (I) for the experiment was dissolved with 2% DMSO+10% PEG400+88% (28% HP-3-CD) physiological saline to prepare a solution; the solution of the test substance was administered to SD rats by gavage at a dose of 5.0 mg/kg; and the blood sampling time points were 15 min, 30 min, 1 h, 2 h, 4 h, 6 h, 8 h and 24 h after administration.
as §1, with “The compound” for “the compound”, “by intravenous bolus” for “by gavage”, “of 1” for “of 5.0”, “were 5 min,” for “were”
The crystal form I for the experiment was dissolved with 5% DMSO+10% PEG400+85% (20% captisol) physiological saline solution to prepare a solution; the solution of the test substance was administered to SD rats by gavage at a dose of 60.0 mg/kg; and the blood sampling time points were 15 min, 30 min, 1 h, 2 h, 4 h, 8 h, 24 h, 30 h and 48 h after administration.
The crystal form I for the experiment was dissolved with 2% DMSO+10% PEG400+88% (28% HP-β-CD) physiological saline to prepare a solution; the solution of the test substance was administered to SD rats by intravenous bolus at a dose of 5 mg/kg; and the blood sampling time points were 5 min, 15 min, 30 min, 1 h, 4 h, 8 h, 12 h and 24 h after administration.
Compound of formula (I): the ordinary SD rats were used and fixed; the tails of the rats were heated in a water bath 10 minutes before each time point; and about 100 μL of blood was collected via a tail vein, and then placed in an anticoagulation tube containing EDTA-K2. The blood sample was centrifuged at 8000 rpm at 4° C. for 6 min to obtain a plasma sample, which was prepared within 30 minutes after blood collection. The plasma was stored in a refrigerator at −80° C. before the test.
Crystal form I: the rats were subjected to jugular vein cannulation (JVC); each time, about 0.35 ml of blood was collected from the rats via a jugular vein cannula into a centrifuge tube containing 5 μl of 15% EDTA-K2; the mixture was gently mixed to obtain a homogeneous mixture, and then the centrifuge tube was placed in an ice bath immediately. Within 1 hour after collecting whole blood, the mixture was centrifuged at 4° C. and 2400×g for 5 minutes, and the supernatant was immediately collected to obtain a plasma sample. The plasma was stored in a refrigerator at −80° C. before the test.
the plasma sample to be tested was taken out from the −80° C. refrigerator, subjected to natural melting at room temperature, and then vortexed for 5 min; […] of the plasma sample was precisely pipetted into a 1.5 mL centrifuge tube; […] of the internal standard working solution (tolbutamide in methanol) at a concentration of 100 ng/mL was added, and the mixture was mixed homogeneously; the homogeneous mixture was vortexed for 5 min, and then centrifuged at 12000 rpm for 5 min; 50 μL of the supernatant was precisely pipetted into a 96-well plate pre-filled with 150 μL of water/well; and the plate was vortexed for 5 min for homogenization, and subjected to LC-MS/MS assay, with a sample loading volume of 5 μL. […]

[2] = Stability test of crystal form I (influencing factors); assay type: physicochemical
Method: Test substances: the crystal form I was prepared by example 2 of the present invention.
Method: the appropriate amount of crystal form I samples were taken and placed openly at 60° C. and RH 92.5% under light; and the samples were collected on day 5, day 10, and day 30 to investigate changes in the trait, content, and moisture of the samples.

[3] = Stability test of different crystal forms; assay type: physicochemical
Method: Test substances: the crystal form I was prepared by example 2 of the present invention, the crystal form II was prepared by example 16 of the present invention, the crystal form III was prepared by example 20 of the present invention, the crystal form IV was prepared by example 24 of the present invention, the crystal form V was prepared by example 25 of the present invention, the crystal form VI was prepared by example 27 of the present invention, and the crystal form VII was prepared by example 31 of the present invention.
Method: the appropriate amount of different test substances were taken, and placed at 105° C. for 3 days, and at 60° C. and RH 92.5% under light for 5 days and 10 days, respectively; and the samples were collected on day 0, day 3, day 5 and day 10 to investigate the changes in the trait and content of the samples.
Table 5 and Table 6 show the results of the trait and content after placement at 105° C. for 3 days. Table 7 and Table 8 show the results of the trait and content after placement at 60° C. and RH 92.5% under light for 5 days. Table 9 and Table 10 show the results of the trait and content after placement at RH 92.5% under light for 10 days.

[4] = male SD rats, gavage 60.0 mg/kg
[5] = male SD rats, intravenous bolus 5 mg/kg
[6] = Placed openly at 60° C. for 5 days
[7] = Placed openly at 60° C. for 10 days
[8] = Placed openly at 60° C. for 30 days
[9] = Placed openly at RH 92.5% for 5 days
[10] = Placed openly at RH 92.5% for 10 days
[11] = Placed openly at RH 92.5% for 30 days
[12] = Placed openly under light for 5 days
[13] = Placed openly under light for 10 days
[14] = placed openly under light for 30 days

Tmax ([1]; Sprague-Dawley, rat, plasma, po, male SD rats, gavage 60.0 mg/kg): 1.67 h | AUC(0-t) ([1]; Sprague-Dawley, rat, plasma, po, male SD rats, gavage 60.0 mg/kg, read-out: AUClast PO): 40100 ng·h/mL | AUC(0-t) ([1]; Sprague-Dawley, rat, plasma, male SD rats, intravenous bolus 5 mg/kg, read-out: AUClast iv): 2450 ng·h/mL | AUClast PO/Dose [1, 4]: 667.8 h*ng/mL per mg/kg | tz1/2 PO [1, 4]: 3.91 h | AUClast iv/Dose [1, 5]: 489.4 h*ng/mL per mg/kg | Cl_obs iv [1, 5]: 35.5 mL/min/kg | Vz_obs iv [1, 5]: 0.898 L/kg | tz1/2 iv [1, 5]: 0.453 h | Content ([2]; 0 day): 99.7% | Moisture ([2]; 0 day): 0.08% | Trait ([2]; 0 day): Yellow powder | Content [2, 6]: 99.8% | Moisture [2, 6]: 0.06% | Trait [2, 6]: Yellow powder | Content [2, 7]: 99.8% | Moisture [2, 7]: 0.10% | Trait [2, 7]: Yellow powder | Content [2, 8]: 100.1% | Moisture [2, 8]: 0.12% | Trait [2, 8]: Yellow powder | Content [2, 9]: 99.7% | Moisture [2, 9]: 0.04% | Trait [2, 9]: Yellow powder | Content [2, 10]: 100.3% | Moisture [2, 10]: 0.09% | Trait [2, 10]: Yellow powder | Content [2, 11]: 100.5% | Moisture [2, 11]: 0.09% | Trait [2, 11]: Yellow powder | Content [2, 12]: 99.7% | Moisture [2, 12]: 0.06% | Trait [2, 12]: Yellow powder | Content [2, 13]: 99.3% | Moisture [2, 13]: 0.13% | Trait [2, 13]: Yellow powder | Content [2, 14]: 100.0% | Moisture [2, 14]: 0.09% | Trait [2, 14]: Yellow powder | Content ([3]; 0 day): 99.7% | Trait ([3]; 0 day): Yellow powder | Content ([3]; Placed at 60° C. for 5 days): 99.8% | Content ([3]; Placed at RH 92.5% for 5 days): 99.7% | Content ([3]; Placed at RH 92.5% for 10 days): 100.3% | Trait ([3]; Placed at RH 92.5% for 10 days): Yellow powder | Content ([3]; Placed under light for 5 days): 99.7% | Content ([3]; Placed under light for 10 days): 99.3% | Trait ([3]; Placed under light for 10 days): Yellow powder
Structure (SMILES): CCc1cc2c(N3CCC(C)(OC)CC3)c(C#N)c(=O)[nH]c2cn1 [Crystal form I, 6-ethyl-4-(4-methoxy-4-methylpiperidin-1-yl)-2-oxo-1,2-dihydro-1,7-diazanaphthal ene-3-carbonitrile]
pharmacokinetic characteristics ([1]; conclusion from Table 2, rats): excellent pharmacokinetic characteristics
